Test results reported in US10669283B2, “Compound and pharmacologically acceptable salt thereof” (MEIJI SEIKA PHARMA CO., LTD., priority 2016, dated 2020).
Where two headings read alike, the source gives them in different places.

What was measured:
[1] = tested on: PDE4; assay: PDE4 inhibition, scintillation proximity assay (SPA); type: biochemical
Summary of the method: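 Scintillation proximity read-out: [2,8-3H]-cAMP hydrolysis by PDE4 ran 120 min at room temperature in Tris-HCl pH 7.4 buffer with 8.3 mM MgCl2, 1.7 mM EGTA and 3 mg/mL BSA. Bead-bound product (YSi-SPA with ZnSO4, 15 min) counted; blank lacks enzyme, control has DMSO only.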

[2] = Hepatic metabolic stability (rat liver microsome method); type: in vitro ADME; settings: rat liver microsomes 0.5 mg/mL, test substance 1 μM, NADPH 1 mM, 37° C., 30 minutes
Method: Metabolic stability in rat liver microsomes was evaluated by the following method. In 100 mM of potassium phosphate buffer solution (pH 7.4), liver microsomes (concentration at reaction: 0.5 mg/mL) and the test substance (concentration at reaction: 1 μM) were preincubated at 37° C. Five minutes later, 100 mM of potassium phosphate buffer (pH 7.4) solution of NADPH (concentration at reaction: 1 mM) was mixed thereto to start the reaction. After a predetermined time passed, acetonitrile was mixed to the reaction mixture to stop the reaction. Here, the reaction time was 0 and 30 minutes, and drug concentration measurement was performed for each time period using LC-MS. The % remaining value of the test compound was calculated from the value for 0 minutes and the value for 30 minutes, using the calculation formula below: % Remaining=(Value for 30 Minutes/Value for 0 Minutes)×100
The results of measuring the rat liver microsome metabolic Stability (% remaining for 30-minute reaction) for the test compound by the above method were evaluated in accordance with the following evaluated basis; A: a % remaining rate of 75% or more, B: 60% or more and less than 75%, C: 45% or more and less than 60%, and D: less than 45%.

[3] = scintillation proximity assay, class symbols, read-out: PDE4 Inhibitory Activity
[4] = scintillation proximity assay (SPA), evaluated as classes A, B, C, read-out: PDE4 Inhibitory Activity (concentration for the inhibition rate of 50%)

Structure (SMILES) | IC50 [1, 3] [µM] | Residual ratio (% remaining for 30-minute reaction) [2] | IC50 [1, 4] [µM]
O=S(=O)(NCCO)c1ccc(-c2nccs2)c2oc(N3CC4CC(C3)N4)nc12 [Example 385, 2-(3,6-diazabicyclo[3.1.1]heptan-3-yl)-N-(2-hydroxyethyl)-7-(thiazol-2-yl) benzo[d]oxazole-4-sulfonamide] | < 0.1 | A (a % remaining rate of 75% or more) | 
Cc1csc(-c2ccc(OC(F)(F)C(C)(C)O)c3nc(N4CC5CC(C4)N5)oc23)n1 [Example 306, 1-((2-(3,6-Diazabicyclo[3.1.1]heptan-3-yl)-7-(4-methylthiazol-2-yl)benzo[d]oxazol-4-yl)oxy)-1,1-difluoro-2-methylpropan-2-ol] |  | A (a % remaining rate of 75% or more) | 0.1 to 1
FC(F)(F)c1c(Cl)cc(-c2ccccn2)c2oc(N3CC4CCCC(C3)N4)nc12 [Example 12, 2-(3,9-Diazabicyclo[3.3.1]nonan-3-yl)-5-chloro-7-(pyridin-2-yl)-4-(trifluoromethyl)benzo[d]oxazole] |  | B (60% or more and less than 75%) | < 0.1
FC(F)(F)C(OCc1nnn[nH]1)c1ccc(-c2nccs2)c2oc(N3CC4CCC(C3)N4)nc12 (stereo not shown) [Example 230, 4-(1-((1H-tetrazol-5-yl)methoxy)-2,2,2-trifluoroethyl)-2-(3,8-diazabicyclo[3.2.1]octan-3-yl)-7-(thiazol-2-yl)benzo[d]oxazole] |  | A (a % remaining rate of 75% or more) | < 0.1
c1csc(-c2ccc(OC3CCOCC3)c3nc(N4CC5CC(C4)N5)oc23)n1 [Example 294, 2-(3,6-Diazabicyclo[3.1.1]heptan-3-yl)-4-((tetrahydro-2H-pyran-4-yl)oxy)-7-(thiazol-2-yl)benzo[d]oxazole] |  | A (a % remaining rate of 75% or more) | < 0.1
CC(O)C(F)(F)Oc1ccc(-c2nccs2)c2oc(N3CC4CC(C3)N4)nc12 (single isomer, unassigned) [Example 251, 1-((2-(3,6-Diazabicyclo[3.1.1]heptan-3-yl)-7-(thiazol-2-yl)benzo[d]oxazol-4-yl)oxy)-1,1-difluoropropan-2-ol] |  | A (a % remaining rate of 75% or more) | < 0.1
OCC(F)(F)Oc1c(Cl)cc(-c2nccs2)c2oc(N3CC4CC(C3)N4)nc12 [Example 401, 2-((2-(3,6-diazabicyclo [3.1.1]heptan-3-yl)-5-chloro-7-(thiazol-2-yl)benzo[d]oxazol-4-yl)oxy)-2,2-difluoroethan-1-ol] | < 0.1 | A (a % remaining rate of 75% or more) | 
FC(F)(F)Oc1cc(-c2nccs2)c2oc(N3CC4CC(C3)N4)nc2c1 [Example 56, 2-(3,6-Diazabicyclo[3.1.1]heptan-3-yl)-7-(thiazol-2-yl)-5-(trifluoromethoxy)benzo[d]oxazole] |  |  | < 0.1
FC(F)(F)c1cc(-c2nccs2)c2oc(N3CC4CC(C3)N4)nc2c1 [Example 52, 2-(3,6-Diazabicyclo[3.1.1]heptan-3-yl)-7-(thiazol-2-yl)-5-(trifluoromethyl)benzo[d]oxazole] |  |  | < 0.1
COc1ccc(-c2nccs2)c2oc(N3CC4CCCC(C3)N4)nc12 [Example 77, 2-(3,9-Diazabicyclo[3.3.1]nonan-3-yl)-4-methoxy-7-(thiazol-2-yl)benzo[d]oxazole] |  |  | < 0.1
OC(c1cc(-c2nccs2)c2oc(N3CC4CCC(C3)N4)nc2c1OC(F)(F)F)C(F)F (stereo not shown) [Example 275, 1-(2-(3,8-Diazabicyclo[3.2.1]octan-3-yl)-7-(thiazol-2-yl)-4-(trifluoromethoxy)benzo[d]oxazol-5-yl)-2,2-difluoroethan-1-ol] |  |  | < 0.1
CN(CCO)S(=O)(=O)c1ccc(-c2nccs2)c2oc(N3CC4CC(C3)N4)nc12 [Example 389, 2-(3,6-diazabicyclo[3.1.1]heptan-3-yl)-N-(2-hydroxyethyl)-N-methyl-7-(thiazol-2-yl)benzo[d] oxazole-4-sulfonamide] | < 0.1 |  | 
O=C(c1ccc(-c2nccs2)c2oc(N3CC4CCC(C3)N4)nc12)N1CCCCC1 [Example 117, (2-(3,8-Diazabicyclo[3.2.1]octan-3-yl)-7-(thiazol-2-yl)benzo[d]oxazol-4-yl)(piperidin-1-yl)methanone] |  |  | < 0.1
CC(O)(c1ccc(-c2nccs2)c2oc(N3CC4CC(C3)N4)nc12)C(F)F (stereo not shown) [Example 126, 2-(2-(3,6-Diazabicyclo[3.1.1]heptan-3-yl)-7-(thiazol-2-yl)benzo[d]oxazol-4-yl)-1,1-difluoropropan-2-ol] |  |  | < 0.1
CC(O)c1cc(-c2nccs2)c2oc(N3CC4CCC(C3)N4)nc2c1C(F)(F)F (stereo not shown) [Example 181, 1-(2-(3,8-Diazabicyclo[3.2.1]octan-3-yl)-7-(thiazol-2-yl)-4-(trifluoromethyl)benzo[d]oxazol-5-yl)ethan-1-ol] |  |  | < 0.1
O=C(NO)c1ccc(-c2nccs2)c2oc(N3CC4CC(C3)N4)nc12 [Example 367, 2-(3,6-diazabicyclo[3.1.1]heptan-3-yl)-N-hydroxy-7-(thiazol-2-yl)benzo[d] oxazole-4-carboxamide] | < 0.1 |  | 
OC(O)(c1cc(-c2nccs2)c2oc(N3CC4CCCC(C3)N4)nc2c1)C(F)(F)F [Example 156, 1-(2-(3,9-Diazabicyclo[3.3.1]nonan-3-yl)-7-(thiazol-2-yl)benzo[d]oxazol-5-yl)-2,2,2-trifluoroethane-1,1-diol] |  |  | < 0.1
N#CCOC(c1cc(-c2nccs2)c2oc(N3CC4CC(C3)N4)nc2c1)C(F)(F)F (stereo not shown) [Example 152, 2-(1-(2-(3,6-Diazabicyclo[3.1.1]heptan-3-yl)-7-(thiazol-2-yl)benzo[d]oxazol-5-yl)-2,2,2-trifluoroethoxy)acetonitrile] |  |  | < 0.1
Oc1ccc(-c2nccs2)c2oc(N3CC4CCCC(C3)N4)nc12 [Example 80, 2-(3,9-Diazabicyclo[3.3.1]nonan-3-yl)-7-(thiazol-2-yl) benzo[d]oxazol-4-ol] |  |  | < 0.1
OCc1ccc(-c2nccs2)c2oc(N3CC4CC(C3)N4)nc12 [Example 133, (2-(3,6-Diazabicyclo[3.1.1]heptan-3-yl)-7-(thiazol-2-yl)benzo[d]oxazol-4-yl)methanol] |  |  | < 0.1
COC(C)(C)c1cc(-c2nccs2)c2oc(N3CC4CC(C3)N4)nc2c1 [Example 174, 2-(3,6-Diazabicyclo[3.1.1]heptan-3-yl)-5-(2-methoxypropan-2-yl)-7-(thiazol-2-yl)benzo[d]oxazole] |  |  | < 0.1
CC(=O)Nc1cc(-c2nccs2)c2oc(N3CC4CC(C3)N4)nc2c1 [Example 49, N-(2-(3,6-diazabicyclo[3.1.1]heptan-3-yl)-7-(thiazol-2-yl)benzo[d]oxazol-5-yl)acetamide] |  |  | 0.1 to 1
COC(c1cc(-c2nccs2)c2oc(N3CC4CCC(C3)N4)nc2c1OC(F)(F)F)C(F)F (stereo not shown) [Example 209, 2-(3,8-Diazabicyclo[3.2.1]octan-3-yl)-5-(2,2-difluoro-1-methoxyethyl)-7-(thiazol-2-yl)-4-(trifluoromethoxy)benzo[d]oxazole] |  |  | < 0.1
CSc1ccc(-c2nccs2)c2oc(N3CC4CC(C3)N4)nc12 [Example 345, 2-(3,6-diazabicyclo[3.1.1]heptan-3-yl)-4-(methylthio)-7-(thiazol-2-yl)benzo [d]oxazole] | < 0.1 |  | 
c1csc(-c2cc(CN3CCOCC3)cc3nc(N4CC5CCC(C4)N5)oc23)n1 [Example 168, 2-(3,8-Diazabicyclo[3.2.1]octan-3-yl)-5-(morpholinomethyl)-7-(thiazol-2-yl)benzo[d]oxazole] |  |  | < 0.1
O=C(O)COc1cc(-c2nccs2)c2oc(N3CC4CCC(C3)N4)nc2c1 [Example 74, 2-((2-(3,8-Diazabicyclo[3.2.1]octan-3-yl)-7-(thiazol-2-yl)benzo[d]oxazol-5-yl)oxy)acetic acid] |  |  | < 0.1
COc1cc(-c2nccs2)c2oc(N3CC4CC(C3)N4)nc2c1 [Example 61, 2-(3,6-Diazabicyclo[3.1.1]heptan-3-yl)-5-methoxy-7-(thiazol-2-yl)benzo[d]oxazole] |  |  | < 0.1
CCOC(=O)c1ccc(-c2nccs2)c2oc(N3CC4CCCC(C3)N4)nc12 [Example 114, Ethyl 2-(3,9-diazabicyclo[3.3.1]nonan-3-yl)-7-(thiazol-2-yl) benzo[d]oxazole-4-carboxylate] |  |  | < 0.1
CCOC(c1cc(-c2nccs2)c2oc(N3CC4CCC(C3)N4)nc2c1)C(F)(F)F (stereo not shown) [Example 148, 2-(3,8-Diazabicyclo[3.2.1]octan-3-yl)-5-(1-ethoxy-2,2,2-trifluoroethyl)-7-(thiazol-2-yl)benzo[d]oxazole] |  |  | < 0.1
COC(C)c1cc(-c2nccs2)c2oc(N3CC4CC(C3)N4)nc2c1 (stereo not shown) [Example 111, 2-(3,6-Diazabicyclo[3.1.1]heptan-3-yl)-5-(1-methoxyethyl)-7-(thiazol-2-yl)benzo[d]oxazole] |  |  | < 0.1
